Test results: patent US8420823B2, “Long-chain fatty acyl elongase inhibitor comprising arylsulfonyl derivative as active ingredient” (MSD K.K., priority 2008, dated 2013)

Target: T1, human LCE (Homo sapiens, UniProt Q9H5J4)
T1 sequence (Q9H5J4 1-265): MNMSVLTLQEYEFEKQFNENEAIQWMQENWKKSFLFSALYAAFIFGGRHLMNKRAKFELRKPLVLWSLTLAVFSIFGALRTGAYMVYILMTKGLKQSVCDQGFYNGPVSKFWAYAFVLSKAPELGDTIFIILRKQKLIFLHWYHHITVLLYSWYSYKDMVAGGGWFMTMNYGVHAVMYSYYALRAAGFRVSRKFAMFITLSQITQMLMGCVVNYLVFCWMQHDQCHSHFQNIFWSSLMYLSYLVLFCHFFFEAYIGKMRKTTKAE
Assay: LCE enzyme activity-inhibitory test
Type: biochemical
Conditions: [14C]-malonyl CoA / palmitoyl CoA substrate, 37° C., 90 minutes
Procedure: Pharmacological Test Example 1 (LCE Enzyme Activity-inhibitory Test)
A test compound was dissolved in dimethyl sulfoxide (DMSO to be 10 mM), and then diluted with DMSO to prepare a 1000-fold concentrated solution of the test concentration. An improved Moon et al's method (J. Biol. Chem., Vol. 276, pp. 45358-45366, 2001) was employed for the LCE enzyme activity-inhibitor test. Concretely, the diluted compound was applied to a 96-well assay plate (Corning, 96-well assay block) in an amount of 1.0 μL/well; 50 μL of a phosphate buffer solution (100 mM potassium phosphate buffer, pH 6.5), and 25 μL of a substrate solution (100 mM potassium phosphate buffer (pH 6.5), 4.0 μM rotenone, 80 μM fatty acid-free bovine serum albumin, 160 μM palmitoyl CoA, 80 μM malonyl CoA, 3.5 μM [^14C]-malonyl CoA (1.92 GBq/mmol, by Amersham)) were added to each well; 25 μL of an enzyme solution (100 mM potassium phosphate buffer (pH 6.5), 100 μg/mL human LCE) was added thereto; the top of the plate was airtightly sealed up; and this was incubated with gently shaking and stirring at 37° C. for 90 minutes. Next, 100 μL of 5 M hydrochloric acid was added to each well, and the assay plate was stirred at room temperature for 5 minutes to stop the enzyme reaction with hydrolyzing the acyl CoA. Next, the enzyme reaction solution in each well was adsorbed by each well of a 96-well GF/C filter plate (Perkin Elmer Unifilter 96 GF/C); the individual wells were washed with water to remove the non-adsorbed malonyl CoA; and the GF/C filter plate was dried at 50° C. for 60 minutes. Next, 30 μL of a scintillator (Perkin Elmer Microscinti 0) was added to each well; then the top of the plate was sealed up; and the fixed [^14C] radioactivity was measured with a microplate scintillation counter (Perkin Elmer TopCount) to be the enzyme activity. The human LCE enzyme-inhibitory activity of the test compound was calculated, based on the radioactivity of the DMSO-added well with no test compound therein as a control.

SMILES | IC50
CC(C)c1ccc(NC(=O)c2cccc(S(=O)(=O)N3CCOCC3)c2)cc1 [Example 29, N-(4-isopropylphenyl)-3-(morpholin-4-ylsulfonyl)benzamide] | 180 nM
CC(C)c1ccc(NC(=O)c2cccc(S(=O)(=O)N3CCCCC3C)c2)cc1 (stereo not shown) [Example 30, N-(4-isopropylphenyl)-3-[(2-methylpiperidin-1-yl)sulfonyl]benzamide] | 100 nM
CC(C)c1ccc(NC(=O)c2cccc(S(=O)(=O)N3[C@H](C)CCC[C@@H]3C)c2)cc1 [Example 31, 3-{[(2R,6S)-2,6-dimethylpiperidin-1-yl]sulfonyl}-N-(4-isopropylphenyl)benzamide] | 2800 nM
CC(C)c1ccc(NC(=O)c2cccc(S(=O)(=O)N3CCCC(O)C3)c2)cc1 (stereo not shown) [Example 32, 3-[(3-Hydroxypiperidin-1-yl)sulfonyl]-N-(4-isopropylphenyl)benzamide] | 100 nM
CC(C)c1ccc(NC(=O)c2cccc(S(=O)(=O)N3CC[C@@H](F)C3)c2)cc1 [Example 33] | 2600 nM
CC(C)c1ccc(NC(=O)c2cccc(S(=O)(=O)N3CCCC(C(N)=O)C3)c2)cc1 (stereo not shown) [Example 34, 1-[(3-{[(4-Isopropylphenyl)amino]carbonyl]phenyl)sulfonyl}piperidine-3-carboxamide] | 53 nM
CC(C)c1ccc(NC(=O)c2cccc(S(=O)(=O)N3CCC[C@@H](O)C3)c2)cc1 [Example 36, 3-{[(3R)-3-hydroxypiperidin-1-yl]sulfonyl}-N-(4-isopropylphenyl)benzamide] | 81 nM
CC(C)c1ccc(NC(=O)c2cccc(S(=O)(=O)N3CCCC(CO)C3)c2)cc1 (stereo not shown) [Example 37, 3-{[3-(hydroxymethyl)piperidin-1-yl]sulfonyl}-N-(4-isopropylphenyl)benzamide] | 66 nM
CC(C)c1ccc(NC(=O)c2cccc(S(=O)(=O)NC3CCCCC3)c2)cc1 [Example 38, 3-[(Cyclohexylamino)sulfonyl]-N-(4-isopropylphenyl)benzamide] | 1000 nM
CC(C)c1ccc(NC(=O)c2cccc(S(=O)(=O)Nc3ccccc3)c2)cc1 [Example 39, 3-(Anilinosulfonyl)-N-(4-isopropylphenyl)benzamide] | 5200 nM
COC[C@H]1CCCN1S(=O)(=O)c1cccc(C(=O)Nc2ccc(C(C)C)cc2)c1 [Example 40, N-(4-Isopropylphenyl)-3-{[(2R)-2-(methoxymethyl)pyrrolidin-1-yl]sulfonyl}benzamide] | 8000 nM
COc1ccccc1NC(=O)c1cccc(S(=O)(=O)N2CCC[C@@H](O)C2)c1 [Example 41, 3-{[(3R)-3-hydroxypiperidin-1-yl]sulfonyl}-N-(2-methoxyphenyl)benzamide] | 5100 nM
COc1ccccc1NC(=O)c1cccc(S(=O)(=O)N2CCCC(CO)C2)c1 (stereo not shown) [Example 42, 3-{[3-(hydroxymethyl)piperidin-1-yl]sulfonyl}-N-(2-methoxyphenyl)benzamide] | 500 nM
COc1ccccc1NC(=O)c1cccc(S(=O)(=O)N2CCCC(C(N)=O)C2)c1 (stereo not shown) [Example 43, 1-[(3-{[(2-methoxyphenyl)amino]carbonyl]phenyl)sulfonyl}piperidine-3-carboxamide] | 530 nM
COc1ccc(NC(=O)c2cccc(S(=O)(=O)NCCCCC(=O)O)c2)cc1 [Example 44, 5-{[(3-{[(4-methoxyphenyl)amino]carbonyl}phenyl)sulfonyl]amino}pentanoic acid] | 15000 nM
COc1ccc(NC(=O)c2cccc(S(=O)(=O)NC(C)(C)C)c2)cc1 [Example 45, 3-[(Tert-butylamino)sulfonyl]-N-(4-methoxyphenyl)benzamide] | 10000 nM

SMILES | IC50
COc1ccc(NC(=O)c2cccc(S(=O)(=O)N3CCCCC3)c2)cc1 [Example 46, N-(4-methoxyphenyl)-3-(piperidin-1-ylsulfonyl)benzamide] | 790 nM
COc1cccnc1NC(=O)c1cccc(S(=O)(=O)N2CCOCC2)c1 [Example 47, N-(3-methoxypyridin-2-yl)-3-(morpholin-4-ylsulfonyl)benzamide] | 1400 nM
COc1cccnc1NC(=O)c1cccc(S(=O)(=O)N2CCC[C@@H]2C)c1 [Example 48, N-(3-methoxypyridin-2-yl)-3-{[(2S)-2-methylpyrrolidin-1-yl]sulfonyl}benzamide] | 210 nM
COc1cccnc1NC(=O)c1cccc(S(=O)(=O)N2CC3CCC2C3)c1 (stereo not shown) [Example 49, 3-(2-Azabicyclo [2.2.1]hept-2-ylsulfonyl)-N-(3-methoxypyridin-2-yl)benzamide] | 67 nM
COc1cccnc1NC(=O)c1cccc(S(=O)(=O)N2CCCC(c3nc4ccccc4[nH]3)C2)c1 (stereo not shown) [Example 50, 3-{[3-(1H-benzimidazol-2-yl)piperidin-1-yl]sulfonyl}-N-(3-methoxypyridin-2-yl)benzamide] | 53 nM
COc1cccnc1NC(=O)c1cccc(S(=O)(=O)N2CC3CCC2CC3)c1 [Example 51, 3-(2-Azabicyclo[2.2.2]oct-2-ylsulfonyl)-N-(3-methoxypyridin-2-yl)benzamide] | 330 nM
COc1cccnc1NC(=O)c1cccc(S(=O)(=O)N2C3CCC2CC3)c1 [Example 52, 3-(7-Azabicyclo[2.2.1]hept-7-ylsulfonyl)-N-(3-methoxypyridin-2-yl)benzamide] | 930 nM
COc1cccnc1NC(=O)c1cccc(S(=O)(=O)N2C[C@H]3C[C@@H]2CO3)c1 [Example 53, N-(3-methoxypyridin-2-yl)-3-[(1R,4R)-2-oxa-5-azabicyclo[2.2.1]hept-5-ylsulfonyl]benzamide] | 7600 nM
COc1cccnc1NC(=O)c1cccc(S(=O)(=O)N2C3CCCC2CC3)c1 [Example 54, 3-(8-Azabicyclo[3.2.1]oct-8-ylsulfonyl)-N-(3-methoxypyridin-2-yl)benzamide] | 1600 nM
CCOC(=O)C1CCCN(S(=O)(=O)c2cccc(C(=O)Nc3ncccc3OC)c2)C1 (stereo not shown) [Example 55, Ethyl 1-[(3-{[(3-methoxypyridin-2-yl)amino]carbonyl}phenyl)sulfonyl]piperidine-3-carboxylate] | 310 nM
COc1cccnc1NC(=O)c1cccc(S(=O)(=O)N2CCCC(C(=O)O)C2)c1 (stereo not shown) [Example 56, 1-[(3-{[(3-Methoxypyridin-2-yl)amino]carbonyl}phenyl)sulfonyl]piperidine-3-carboxylic acid] | 3200 nM
COc1cccnc1NC(=O)c1cccc(S(=O)(=O)N2CCCC(C(N)=O)C2)c1 (stereo not shown) [Example 57, 1-[(3-{[(3-methoxypyridin-2-yl)amino]carbonyl}phenyl)sulfonyl]piperidine-3-carboxamide] | 830 nM
CC(C)Oc1ccc(NC(=O)c2cccc(S(=O)(=O)N3CCCC(C(N)=O)C3)c2)nc1 (stereo not shown) [Example 58, 1-[(3-{[(5-Isopropoxypyridin-2-yl)amino]carbonyl}phenyl)sulfonyl]piperidine-3-carboxamide] | 160 nM
CC(C)Oc1ccc(NC(=O)c2cccc(S(=O)(=O)N3CCC[C@H](C(N)=O)C3)c2)nc1 [Example 59, (3S)-1-[(3-{[(5-isopropoxypyridin-2-yl)amino]carbonyl}phenyl)sulfonyl]piperidine-3-carboxamide] | 110 nM
CC(C)Oc1ccc(NC(=O)c2cccc(S(=O)(=O)N3CCC[C@@H](C(N)=O)C3)c2)nc1 [Example 59′, (3R)-1-[(3-{[(5-isopropoxypyridin-2-yl)amino]carbonyl}phenyl)sulfonyl]piperidine-3-carboxamide] | 3000 nM
